Test results from patent US6395741B1, “Agent for prophylaxis or treatment of dysuria” (Tanabe Seiyaku Co., Ltd., priority 1998, dated 2002).
Square brackets hold non-standard residues; d marks the D form. Ends that are not written are not given here. Peptide text beside a SMILES is read from it. Nva = CCC[C@H](N)C(=O)O

Legend:
[1] = system: increase in urethral resistance induced by endothelin-1; assay: Inhibitory activity against the increase in urethral resistance induced by endothelin-1; type: in vivo, dog; conditions: intraduodenal administration 1 mg/kg; endothelin-1 0.4 nmol/kg i.v.; dogs
Procedure: Polyethylene tubes were inserted to male adult mongrel dogs which had been fasted overnight (four dogs, weights: 10 to 14 kg), under pentobarbital anesthesia (30 mg/kg, i.v.), at the femoral veins on both sides. The anesthesia was maintained by continuous transfusion of pentobarbital (4.5 mg/kg) from said polyethylene tubes, and the dogs were ventilated by a respirator for animal (20 strokes per minute, 15 ml/kg/ventilation). Then, a polyethylene tube was inserted for administration of a test compound into the duodenum, and the urinary bladder and the proximal urethra were exposed. In order to avoid the urinary backup within the urinary bladder, a polyethylene tube having a silicon tube was inserted at the ureters on both sides, by which a way for excreting the urine from the body was reserved. […] Then, the change in the perfusion pressure (i.e., the change in the urethral resistance, mmHg) caused by the continuous infusion of physiological saline (37° C., 3 ml/hr) through this catheter was recorded on a linearcorder (WR-3701, manufactured by Graphtec Corporation) via a carrier amplifier (AP-621G, manufactured by Nihon Kohden Corporation). […]

[2] = system: prostatic contractions induced by endothelin-1; conditions: JP-A-8-508034; cited from earlier work
[3] = system: anesthetized dogs; assay: Urethral resistance increasing activity in the anesthetized dogs; type: in vivo, dog
Procedure: Polyethylene tubes were inserted to male adult mongrel dogs which had been fasted overnight (four dogs, weights: 10 to 14 kg), under pentobarbital anesthesia (30 mg/kg, i.v.), at the femoral veins on both sides. The anesthesia was maintained by continuous transfusion of pentobarbital (4.5 mg/kg) from said polyethylene tubes, and the dogs were ventilated by a respirator for animal (20 strokes per minute, 15 ml/kg/ventilation). Then, a polyethylene tube was inserted for administration of a test compound into the duodenum, and the urinary bladder and the proximal urethra were exposed. In order to avoid the urinary backup within the urinary bladder, a polyethylene tube having a silicon tube was inserted at the ureters on both sides, by which a way for excreting the urine from the body was reserved. Moreover, in order to determine the ventral and dorsal prostatic urethral resistances, the apex of the urinary bladder was incised, and a 2-hole open-tip catheter (12Fr, manufactured by CLINY) was inserted into the prostatic urethra through the bladder body. Said catheter was ligated at the proximal urethra and the bladder body, and one of the ends thereof was connected with a pressure-transducer and a syringe pump (SP-25, manufactured by Terumo Corporation) via a three-way turncock. Then, the change in the perfusion pressure (i.e., the change in the urethral resistance, mmHg) caused by the continuous infusion of physiological saline (37° C., 3 ml/hr) through this catheter was recorded on a linearcorder (WR-3701, manufactured by Graphtec Corporation) via a carrier amplifier (AP-621G, manufactured by Nihon Kohden Corporation).
In order to increase the urethral resistance, a solution of phenylephrine (α1 agonist) or endothelin-1 in physiological saline was intravenously administered at a prescribed dose (volume: 0.1 ml/kg) to the dogs when 60 minutes or more elapsed after the above operation.

[4] = system: smooth muscle of hypertrophied prostatic adenoma; conditions: Journal of Japanese Urology Society, vol. 84, No. 9, 1993; cited from earlier work

Molecule: Cc1ccc(-c2c(NS(=O)(=O)c3ccc(C(C)(C)CO)cc3)ncnc2OCCOc2ncc(Br)cn2)cc1.[Na] [test compound, 4-(2-hydroxy-1,1-dimethylethyl)-N-[6-{2-(5-bromopyrimidin-2-yloxy)ethoxy}-5-(4-methylphenyl)pyrimidin-4-yl]benzenesulfonamide sodium salt 1.5 hydrate]
- Inhibition of the increase in urethral resistance induced by endothelin-1 [1]: completely inhibited

Molecule: N-(4-isopropylbenzenesulfonyl)-α-(4-carboxy-2-n-propylphenoxy)-3,4-methylenedioxyphenylacetamide dipotassium salt
- Activity of inhibiting the prostatic contractions induced by endothelin-1 [2]: shows an activity of inhibiting

Molecule: CNC[C@H](O)c1cccc(O)c1 [phenylephrine]
- Urethral pressure (increase of the prostatic urethral resistance) ([3]; phenylephrine i.v. 0.3 μg/kg, anesthetized dogs): 0.8 mmHg
- Urethral pressure (increase of the prostatic urethral resistance) ([3]; phenylephrine i.v. 1 μg/kg, anesthetized dogs): 2.1 mmHg
- Urethral pressure (increase of the prostatic urethral resistance) ([3]; phenylephrine i.v. 3 μg/kg, anesthetized dogs): 3.3 mmHg
- Urethral pressure (increase of the prostatic urethral resistance) ([3]; phenylephrine i.v. 10 μg/kg, anesthetized dogs): 4.6 mmHg
- Urethral pressure (increase of the prostatic urethral resistance) ([3]; phenylephrine i.v. 30 μg/kg, anesthetized dogs): 4.9 mmHg

Molecule: CCC[C@@H]1NC(=O)[C@@H](C(C)C)NC(=O)[C@@H]2CCCN2C(=O)[C@@H](CC(=O)O)NC(=O)[C@@H](Cc2c[nH]c3ccccc23)NC1=O (cyclo([Nva][dW][dD]P[dV]))
- Inhibition of contractions of the smooth muscle of hypertrophied prostatic adenoma induced by endothelin-1 [4]: inhibited

Molecule: endothelin-1 (CSCSSLMDKECVYFCHLDIIW; ends and bridges not checked; cysteine pairing not given here; UniProt P05305 53-73, looked up)
- Average increase of the urethral resistance relative to phenylephrine at 30 μg/kg ([3]; endothelin-1 0.4 nmol/kg vs phenylephrine 30 μg/kg, i.v., dogs): about 4 times
- Urethral pressure (increase of the prostatic urethral resistance) ([3]; endothelin-1 i.v. 0.05 nmol/kg, anesthetized dogs): 2.2 mmHg
- Urethral pressure (increase of the prostatic urethral resistance) ([3]; endothelin-1 i.v. 0.1 nmol/kg, anesthetized dogs): 4.5 mmHg
- Urethral pressure (increase of the prostatic urethral resistance) ([3]; endothelin-1 i.v. 0.2 nmol/kg, anesthetized dogs): 14.3 mmHg
- Urethral pressure (increase of the prostatic urethral resistance) ([3]; endothelin-1 i.v. 0.4 nmol/kg, anesthetized dogs): 18.9 mmHg
- Urethral pressure (increase of the prostatic urethral resistance) ([3]; endothelin-1 i.v. 0.8 nmol/kg, anesthetized dogs): 15.4 mmHg
- Duration of the urethral resistance increasing activity ([3]; i.v., anesthetized dogs, compared with phenylephrine): more long-acting than that of phenylephrine
